In paper PMC11675580, “Supersaturated Gel Formulation (SGF) of Atorvastatin at a Maximum Dose of 80 mg with Enhanced Solubility, Dissolution, and Physical Stability” (Gels, 2024):

Assay: Drug release kinetics (first-order fit)
Format: physicochemical
From the text: The drug release data was fitted to kinetic models of first-order, and the coefficient of determination (r^2) was indicative of best-fit model to describe drug release kinetics.

CC(C)c1c(C(=O)Nc2ccccc2)c(-c2ccccc2)c(-c2ccc(F)cc2)n1CC[C@@H](O)C[C@@H](O)CC(=O)O [ATR, Atorvastatin calcium trihydrate]
Drug release rate constant (first-order rate constant, K1) (Water, release data until 30 min): 1.092
Drug release rate constant (first-order rate constant, K1) (pH 1.2, release data until 30 min): 0.608
Drug release rate constant (first-order rate constant, K1) (pH 4.0, release data until 30 min): 0.752
Drug release rate constant (first-order rate constant, K1) (pH 6.8, release data until 30 min): 1.040
